According to patent publication US8987195B2 (priority 2012, dated 2015):
pEC50: −log10 of the molar value.

Columns and labels:
[1] = molecular target: HCV NS3/4A protease genotype 1b (Hepatitis C virus genotype 1b, UniProt P26663); test: HCV NS3/4A protease time-resolved fluorescence (TRF) assay, Ki against genotype 1b; type: biochemical; conditions: IC50 [gt-1b] (nM), NS3/4A genotype 1b, enzyme 0.2 nM
Procedure, shortened: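 Ki was converted from fitted IC50 using IC50=Ki(1+[S]/KM) and 25 nM substrate. Protease (genotype 1b 0.2 nM, A156T 0.4 nM, 3a 0.025 nM) and compound were pre-mixed 30 min in pH 7.5 HEPES/NaCl/glycerol/DTT buffer. Cleavage then proceeded 2.5 h at room temperature, detected by time-resolved europium fluorescence (340/615 nm).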

[2] = test system: HCV genotype 1b replicon; test: HCV replicon assay, genotype 1b replicon EC50; type: cell-based, Hepatitis C virus; conditions: Hepatitis C virus, genotype 1b replicon; read-out: EC50 [gt-1b]
Procedure, shortened: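 Stable neomycin-selected genotype 1b replicon cells, some carrying luciferase:Neo^r fusion, plated without G418 with a compound dilution series and incubated 24-48 h. Read-out was RNA (^32P-probe protection or TaqMan, normalized to cyclophilin A) or luciferase activity. EC50 from four-parameter fit as percent of DMSO control.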

SMILES: COc1ccc2nc(C3CC3)c3c(c2c1)CC[C@]1(C[C@H]2C(=O)N[C@]4(C(=O)NS(=O)(=O)C5(C)CC5)C[C@H]4/C=C\CCCCC[C@H](NC(=O)NC(C)(C)C)C(=O)N2C1)O3 [Example 90, (2R,6S,12Z,13aS,14aR,16aS)-6-[(tert-butylcarbamoyl)amino]-5′-cyclopropyl-9′-methoxy-N-[(1-methylcyclopropyl)sulfonyl]-5,16-dioxo-1,1′,2′,6,7,8,9,10,11,13a,14,15,16,16a-tetradecahydrospiro[cyclopropa[e]pyrrolo[1,2-a][1,4]diazacyclopentadecine-2,3′-pyrano[2,3-c]quinoline]-14a(5H)-carboxamide]
- IC50 [1]: 0.006 nM
- pEC50 [2]: 8.94

SMILES: COc1ccc2nc(C3CC3)c3c(c2c1)CC[C@]1(C[C@H]2C(=O)N[C@]4(C(=O)NS(=O)(=O)C5(C)CC5)C[C@H]4/C=C\CCCCC[C@H](NC(=O)OC4CCCC4)C(=O)N2C1)O3 [Example 91, cyclopentyl [(2R,6S,12Z,13aS,14aR,16aS)-5′-cyclopropyl-9′-methoxy-14a-{[(1-methylcyclopropyl)sulfonyl]carbamoyl}-5,16-dioxo-1,1′,2′,5,6,7,8,9,10,11,13a,14,14a,15,16,16a-hexadecahydrospiro[cyclopropa[e]pyrrolo[1,2-a][1,4]diazacyclopentadecine-2,3′-pyrano[2,3-c]quinolin]-6-yl]carbamate]
- IC50 [1]: 0.009 nM
- pEC50 [2]: 9.34

SMILES: COc1ccc2nc(C3CC3)c3c(c2c1)CC[C@]1(C[C@H]2C(=O)N[C@]4(C(=O)NS(=O)(=O)C5(C)CC5)C[C@H]4/C=C\CCCCC[C@H](NC(=O)OC4(C)CC4)C(=O)N2C1)O3 [Example 92, 1-methylcyclopropyl [(2R,6S,12Z,13aS,14aR,16aS)-5′-cyclopropyl-9′-methoxy-14a-{[(1-methylcyclopropyl)sulfonyl]carbamoyl}-5,16-dioxo-1,1′,2′,5,6,7,8,9,10,11,13a,14,14a,15,16,16a-hexadecahydrospiro[cyclopropa[e]pyrrolo[1,2-a][1,4]diazacyclopentadecine-2,3′-pyrano[2,3-c]quinolin]-6-yl]carbamate]
- IC50 [1]: 0.01 nM
- pEC50 [2]: 9.36

SMILES: COc1ccc2nc(C3CC3)c3c(c2c1)CC[C@]1(C[C@H]2C(=O)N[C@]4(C(=O)NS(=O)(=O)C5(C)CC5)C[C@H]4/C=C\CCCCC[C@H](NC(=O)NC4CCCC4)C(=O)N2C1)O3 [Example 93, (2R,6S,12Z,13aS,14aR,16aS)-6-[(cyclopentylcarbamoyl)amino]-5′-cyclopropyl-9′-methoxy-N-[(1-methylcyclopropyl)sulfonyl]-5,16-dioxo-1,1′,2′,6,7,8,9,10,11,13a,14,15,16,16a-tetradecahydrospiro[cyclopropa[e]pyrrolo[1,2-a][1,4]diazacyclopentadecine-2,3′-pyrano[2,3-c]quinoline]-14a(5H)-carboxamide]
- IC50 [1]: 0.007 nM
- pEC50 [2]: 8.47

SMILES: COc1ccc2nc(C3CC3)c3c(c2c1)CC[C@]1(C[C@H]2C(=O)N[C@]4(C(=O)NS(=O)(=O)C5(C)CC5)C[C@H]4/C=C\CCCCC[C@H](NC(=O)OC(C)C)C(=O)N2C1)O3 [Example 94, propan-2-yl [(2R,6S,12Z,13aS,14aR,16aS)-5′-cyclopropyl-9′-methoxy-14a-{[(1-methylcyclopropyl)sulfonyl]carbamoyl}-5,16-dioxo-1,1′,2′,5,6,7,8,9,10,11,13a,14,14a,15,16,16a-hexadecahydrospiro[cyclopropa[e]pyrrolo[1,2-a][1,4]diazacyclopentadecine-2,3′-pyrano[2,3-c]quinolin]-6-yl]carbamate]
- IC50 [1]: 0.003 nM
- pEC50 [2]: 9.21

SMILES: Cc1nc2c(C(F)(F)F)cccc2c2c1O[C@]1(CC2)C[C@H]2C(=O)N[C@]3(C(=O)NS(=O)(=O)C4CC4)C[C@H]3/C=C\CCCCC[C@H](NC(=O)OC(C)(C)C)C(=O)N2C1 [Example 95, tert-butyl [(2R,6S,12Z,13aS,14aR,16aS)-14a-[(cyclopropylsulfonyl)carbamoyl]-5′-methyl-5,16-dioxo-7′-(trifluoromethyl)-1,1′,2′,5,6,7,8,9,10,11,13a,14,14a,15,16,16a-hexadecahydrospiro[cyclopropa[e]pyrrolo[1,2-a][1,4]diazacyclopentadecine-2,3′-pyrano[2,3-c]quinolin]-6-yl]carbamate]
- IC50 [1]: 0.993 nM
- pEC50 [2]: 8.28

SMILES: Cc1nc2ccccc2c2c1O[C@]1(CC2)C[C@H]2C(=O)N[C@]3(C(=O)NS(=O)(=O)C4(C)CC4)C[C@H]3/C=C\CCCCC[C@H](NC(=O)OC3CCCC3)C(=O)N2C1 [Example 96, cyclopentyl [(2R,6S,12Z,13aS,14aR,16aS)-5′-methyl-14a-{[(1-methylcyclopropyl)sulfonyl]carbamoyl}-5,16-dioxo-1,1′,2′,5,6,7,8,9,10,11,13a,14,14a,15,16,16a-hexadecahydrospiro[cyclopropa[e]pyrrolo[1,2-a][1,4]diazacyclopentadecine-2,3′-pyrano[2,3-c]quinolin]-6-yl]carbamate]
- IC50 [1]: 0.01 nM
- pEC50 [2]: 9.10

SMILES: Cc1nc2ccccc2c2c1O[C@]1(CC2)C[C@H]2C(=O)N[C@]3(C(=O)NS(=O)(=O)C4(C)CC4)C[C@H]3/C=C\CCCCC[C@H](NC(=O)OCC(C)C)C(=O)N2C1 [Example 97, 2-methylpropyl [(2R,6S,12Z,13aS,14aR,16aS)-5′-methyl-14a-{[(1-methylcyclopropyl)sulfonyl]carbamoyl}-5,16-dioxo-1,1′,2′,5,6,7,8,9,10,11,13a,14,14a,15,16,16a-hexadecahydrospiro[cyclopropa[e]pyrrolo[1,2-a][1,4]diazacyclopentadecine-2,3′-pyrano[2,3-c]quinolin]-6-yl]carbamate]
- IC50 [1]: 0.016 nM
- pEC50 [2]: 8.71

SMILES: CC(C)(C)OC(=O)N[C@H]1CCCCC/C=C\[C@@H]2C[C@@]2(C(=O)NS(=O)(=O)C2CC2)NC(=O)[C@@H]2C[C@]3(CCc4c(cnc5ccccc45)O3)CN2C1=O [Example 98, tert-butyl {(2R,6S,12Z,13aS,14aR,16aS)-14a-[(cyclopropylsulfonyl)carbamoyl]-5,16-dioxo-1,1′,2′,5,6,7,8,9,10,11,13a,14,14a,15,16,16a-hexadecahydrospiro[cyclopropa[e]pyrrolo[1,2-a][1,4]diazacyclopentadecine-2,3′-pyrano[2,3-c]quinolin]-6-yl}carbamate]
- IC50 [1]: 0.057 nM
- pEC50 [2]: 8.01

SMILES: CC(C)(C)OC(=O)N[C@H]1CCCCC/C=C\[C@@H]2C[C@@]2(C(=O)NS(=O)(=O)C2(C)CC2)NC(=O)[C@@H]2C[C@]3(CCc4c(cnc5ccccc45)O3)CN2C1=O [Example 99, tert-butyl [(2R,6S,12Z,13aS,14aR,16aS)-14a-{[(1-methylcyclopropyl)sulfonyl]carbamoyl}-5,16-dioxo-1,1′,2′,5,6,7,8,9,10,11,13a,14,14a,15,16,16a-hexadecahydrospiro[cyclopropa[e]pyrrolo[1,2-a][1,4]diazacyclopentadecine-2,3′-pyrano[2,3-c]quinolin]-6-yl]carbamate]
- IC50 [1]: 0.033 nM
- pEC50 [2]: 8.34

SMILES: COc1ccc2nc(C3CC3)c3c(c2c1)CC[C@]1(C[C@H]2C(=O)N[C@]4(C(=O)NS(=O)(=O)C5(C)CC5)C[C@H]4/C=C\CCCCC[C@H](NC(=O)OCC(C)C)C(=O)N2C1)O3 [Example 100, 2-methylpropyl [(2R,6S,12Z,13aS,14aR,16aS)-5′-cyclopropyl-9′-methoxy-14a-{[(1-methylcyclopropyl)sulfonyl]carbamoyl}-5,16-dioxo-1,1′,2′,5,6,7,8,9,10,11,13a,14,14a,15,16,16a-hexadecahydrospiro[cyclopropa[e]pyrrolo[1,2-a][1,4]diazacyclopentadecine-2,3′-pyrano[2,3-c]quinolin]-6-yl]carbamate]
- IC50 [1]: 0.011 nM
- pEC50 [2]: 8.68
